According to US12258336B2, “Preparation of seimicarbazide-sensitive amine oxidase inhibitor and use thereof” (SHANGHAI ENNOVABIO PHARMACEUTICALS CO., LTD., priority 2018, dated 2025):

System: ALOX5AP, SOCS3 and TLR7 gene expression in retina
Assay: LPS-induced ocular inflammation model: qPCR of inflammation-related genes in retina
Assay type: in vivo
Settings: rat, 6 mg/kg oral, compared with model group
Experimental: 22 rats (7-8 weeks, 220-250 g) were divided into 3 groups, which were control group (6), model group (8) and compound treated group (8). For the model group and compound treated group, ocular inflammation was induced by a single injection of 8 μg/100 μL lipopolysaccharide (Sigma-Aldrich-L2880) into the footpad. The rats were grouped according to their body weight 1 h before induction. Example 4 compound (6 mg/kg, 10 mL/kg) or vehicle (10 mL/kg) were orally administered respectively. 24 hours after induction, the anterior aqueous humor was collected and the eyeballs were removed to dissect the retina. Ocular inflammation was quantitatively evaluated by measuring the protein concentration and cell number in the aqueous humor. qPCR method was used to verify changes in the expression of ocular retinal inflammation-related genes.
• 1) Primers were synthesized, with the information shown as follows:
• 2) Retinal RNA was extracted according to operating instructions of RNA extraction kit (RNeasy Mini Kit, Qiagen-74104), and then the RNA was reverse-transcribed into cDNA (High Capacity cDNA Reverse Transcription Kits, ABI-4374966). The obtained cDNA was diluted 10 times to serve as qPCR reaction template. According to instructions of Power SYBR Green kit (ABI-A25918), qPCR reaction was performed on CFX384 Real-Time qPCR equipment. Quantitative analysis of expression changes for each gene expression was performed using CFX Maestro software by ΔΔCt method, with UBC as internal housekeeping gene.

NC/C(=C\F)COc1cnc(N2CCN(C3COC3)CC2)nc1 [Example 4, (E)-3-fluoro-2-(((2-(4-(oxbutan-3-yl)piperazin-1-yl)pyrimidin-5-yl)oxo)methyl)prop-2-en-1-amine]
significantly reduce: expression level of ALOX5AP gene in retina | expression level of SOCS3 gene in retina | expression level of TLR7 gene in retina
